Results as given in patent publication US20090111837A1, “USE OF PDE7 INHIBITORS FOR THE TREATMENT OF NEUROPATHIC PAIN” (priority 2005, published 2009).

Columns and labels:
[1] = tested on: CCI-induced static allodynia; experiment: Static allodynia (von Frey hairs) in the chronic constriction injury (CCI) rat model of neuropathic pain; format: in vivo
Procedure: Male Sprague Dawley rats weighing 150-400 g obtained from Charles River (Manston, Kent, UK.) were housed in groups of 4. All animals were kept under a 12 h light/dark cycle (lights on at 07 h 00 min) with food and water ad libitum. All experiments were carried out by an observer blind to the treatments and in accordance with the Home Office Animals (Scientific Procedures) Act 1986.
The CCI of sciatic nerve was performed as previously described by Bennett and Xie (Bennett G J, Xie Y K. A peripheral mononeuropathy in rat that produces disorders of pain sensation like those seen in man. Pain: 33:87-107, 1988). Animals were anaesthetised with a 2% isofluorane/O2 mixture. The right hind thigh was shaved and swabbed with 1% iodine. Animals were then transferred to a homeothermic blanket for the duration of the procedure and anaesthesia maintained during surgery via a nose cone. The skin was cut along the line of the thighbone. The common sciatic nerve was exposed at the middle of the thigh by blunt dissection through biceps femoris. About 7 mm of nerve was freed proximal to the sciatic trifurcation, by inserting forceps under the nerve and the nerve gently lifted out of the thigh. Suture was pulled under the nerve using forceps and tied in a simple knot until slight resistance was felt and then double knotted. The procedure was repeated until 4 ligatures (4-0 silk) were tied loosely around the nerve with approx 1 mm spacing. The incision was closed in layers.
Animals were habituated to wire bottom test cages prior to the assessment of allodynia. Static allodynia was evaluated by application of von Frey hairs (Stoelting, Wood Dale, Ill., USA.) in ascending order of force (0.6, 1, 1.4, 2, 4, 6, 8, 10, 15 and 26 grams) to the plantar surface of hind paws. Each von Frey hair was applied to the paw for a maximum of 6 sec, or until a withdrawal response occurred. Once a withdrawal response to a von Frey hair was established, the paw was re-tested, starting with the filament below the one that produced a withdrawal, and subsequently with the remaining filaments in descending force sequence until no withdrawal occurred. The highest force of 26 g lifted the paw as well as eliciting a response, thus represented the cut off point. Each animal had both hind paws tested in this manner. The lowest amount of force required to elicit a response was recorded as paw withdrawal threshold (PWT) in grams. Static allodynia was defined as present if animals responded to a stimulus of, or less than, 4 g, which is innocuous in naive rats (Field M J, Bramwell S, Hughes J, Singh L. Detection of static and dynamic components of mechanical allodynia in rat models of neuropathic pain: are they signalled by distinct primary sensory neurones? Pain, 1999; 83:303-11).
All the experiments were conducted in blind. When the experiment was carried out in more then one day and where technically possible, all groups occurred on each day with equal replication. Static allodynia was expressed as median [LQ; UQ] and analysed by Mann Whitney U test. Dynamic allodynia was expressed as arithmetic mean±SEM and analysed by ANOVA.

[2] = tested on: CCI-induced dynamic allodynia; experiment: Dynamic allodynia (cotton bud stroking) in the chronic constriction injury (CCI) rat model of neuropathic pain; format: in vivo
Procedure: Male Sprague Dawley rats weighing 150-400 g obtained from Charles River (Manston, Kent, UK.) were housed in groups of 4. All animals were kept under a 12 h light/dark cycle (lights on at 07 h 00 min) with food and water ad libitum. All experiments were carried out by an observer blind to the treatments and in accordance with the Home Office Animals (Scientific Procedures) Act 1986. The CCI of sciatic nerve was performed as previously described by Bennett and Xie (Bennett G J, Xie Y K. A peripheral mononeuropathy in rat that produces disorders of pain sensation like those seen in man. Pain: 33:87-107, 1988). Animals were anaesthetised with a 2% isofluorane/O2 mixture. The right hind thigh was shaved and swabbed with 1% iodine. Animals were then transferred to a homeothermic blanket for the duration of the procedure and anaesthesia maintained during surgery via a nose cone. The skin was cut along the line of the thighbone. The common sciatic nerve was exposed at the middle of the thigh by blunt dissection through biceps femoris. About 7 mm of nerve was freed proximal to the sciatic trifurcation, by inserting forceps under the nerve and the nerve gently lifted out of the thigh. Suture was pulled under the nerve using forceps and tied in a simple knot until slight resistance was felt and then double knotted. The procedure was repeated until 4 ligatures (4-0 silk) were tied loosely around the nerve with approx 1 mm spacing. The incision was closed in layers. Dynamic allodynia was assessed by lightly stroking the plantar surface of the hind paw with a cotton bud. To avoid recording general motor activity, care was taken to perform this procedure in fully habituated rats that were not active. At least two measurements were taken at each time point, the mean of which represented the paw withdrawal latency (PWL). […] A pain withdrawal response was often accompanied with repeated flinching or licking of the paw. Dynamic allodynia was considered to be present if animals responded to the cotton stimulus within 8 sec of commencing stroking (Field et al, 1999). All the experiments were conducted in blind. When the experiment was carried out in more then one day and where technically possible, all groups occurred on each day with equal replication. Static allodynia was expressed as median [LQ; UQ] and analysed by Mann Whitney U test. Dynamic allodynia was expressed as arithmetic mean±SEM and analysed by ANOVA.

[3] = CCI rats, PO, 0.3, 1 and 3 mg/kg
[4] = CCI rats, PO, post administration
[5] = CCI rats, oral (PO), doses 0.3, 1 and 3 mg/kg
[6] = highest dose (3 mg/kg PO) vs gabapentin 100 mg/kg PO
[7] = highest dose (3 mg/kg PO), post dose, p<0.01 vs vehicle

O=C(O)CCCOc1ccc(Cl)c2c1C1(CCCCC1)NC(=O)N2 [5′-(3-(Carboxy)propoxy)-8′-chlorospiro[cyclohexane-1,4′-quinazolin]-2′(1′H)-one]
effect on CCI-induced static allodynia [1, 3]: reversed the maintenance of CCI-induced static and dynamic allodynia in a dose dependent manner | time of peak effect, static allodynia [1, 4]: 1 h | MED for static allodynia [1, 5]: 1 mg/kg | static allodynia reversal, curve profile versus gabapentin [1, 6]: comparable to gabapentin | onset of anti-allodynic effect, static allodynia [1, 7]: 30 min | effect on CCI-induced dynamic allodynia [2, 3]: reversed the maintenance of CCI-induced static and dynamic allodynia in a dose dependent manner | time of peak effect, dynamic allodynia [2, 4]: 1 h | MED for dynamic allodynia [2, 5]: 3 mg/kg | dynamic allodynia effect versus gabapentin [2, 6]: less potent but significantly different from vehicle treated CCI rats | dynamic allodynia, paw withdrawal latency (mean±SEM) ([2]; highest dose (3 mg/kg PO), 1 hrs post administration, vehicle treated CCI rats 3.7±0.7, latency recorded in sec, in s): 10.2±1.4 | onset of anti-allodynic effect, dynamic allodynia [2, 7]: 30 min
